Laboratory results as given in the supplement of paper PMC5908809.

Tests used:
[1] = tested on: normal primary NK cells, pool 1 (3 donors) (IL-2 2.5 ng/mL); test: percent inhibition of viability; higher = more inhibition; conditions: 72 h
NK-92 (IL-2 2.5 ng/mL) [2] = test: as above; conditions: 72 h
NKL (IL-2 2.5 ng/mL) [3] = test: as above; conditions: 72 h
[4] = tested on: normal primary NK cells, pool 3 (3 donors) (IL-2 2.5 ng/mL); test: as above; conditions: 72 h
KHYG-1 (IL-2 2.5 ng/mL) [5] = test: as above; conditions: 72 h
YT (IL-2 2.5 ng/mL) [6] = test: as above; conditions: 72 h
IMC-1 (IL-2 20 ng/mL) [7] = test: as above; conditions: 72 h
DERL-7 (IL-2 2.5 ng/mL) [8] = test: as above; conditions: 72 h
SNK-6 (IL-2 2.5 ng/mL) [9] = test: as above; conditions: 72 h
[10] = tested on: normal primary NK cells, pool 1 (3 donors), resting (IL-2 0 ng/mL); test: as above; conditions: 72 h
[11] = tested on: normal primary NK cells, pool 2 (3 donors) (IL-2 2.5 ng/mL); test: as above; conditions: 72 h
KAI3 (IL-2 2.5 ng/mL) [12] = test: as above; conditions: 72 h
NK-YS (IL-2 2.5 ng/mL) [13] = test: as above; conditions: 72 h
[14] = tested on: normal primary NK cells, pool 1 (3 donors) (IL-2 2.5 ng/mL); test: drug sensitivity score (DSS) (DSS units); higher = more sensitive; extreme values may be limits of the assay; conditions: 72 h
NK-92 (IL-2 2.5 ng/mL) [15] = test: as above; conditions: 72 h
NKL (IL-2 2.5 ng/mL) [16] = test: as above; conditions: 72 h
[17] = tested on: normal primary NK cells, pool 3 (3 donors) (IL-2 2.5 ng/mL); test: as above; conditions: 72 h
KHYG-1 (IL-2 2.5 ng/mL) [18] = test: as above; conditions: 72 h
YT (IL-2 2.5 ng/mL) [19] = test: as above; conditions: 72 h
IMC-1 (IL-2 20 ng/mL) [20] = test: as above; conditions: 72 h
DERL-7 (IL-2 2.5 ng/mL) [21] = test: as above; conditions: 72 h
SNK-6 (IL-2 2.5 ng/mL) [22] = test: as above; conditions: 72 h
[23] = tested on: normal primary NK cells, pool 1 (3 donors), resting (IL-2 0 ng/mL); test: as above; conditions: 72 h
[24] = tested on: normal primary NK cells, pool 2 (3 donors) (IL-2 2.5 ng/mL); test: as above; conditions: 72 h
KAI3 (IL-2 2.5 ng/mL) [25] = test: as above; conditions: 72 h
NK-YS (IL-2 2.5 ng/mL) [26] = test: as above; conditions: 72 h
[27] = tested on: normal NK cells expanded with K562-aAPC; test: percent inhibition of viability; higher = more inhibition; conditions: 72 h, IL-2 2.5 ng/mL
Method: (§1)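 Drug sensitivity and resistance testing on K562-aAPC-expanded normal NK cells: 5 concentrations (10-fold steps over a 10,000-fold range), 72 h at 37 °C, viability by CellTiter-Glo normalised to DMSO and benzethonium chloride controls; DSS from the fitted curve.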

[28] = tested on: normal NK cells expanded with K562-aAPC; test: drug sensitivity score (DSS) (DSS units); higher = more sensitive; extreme values may be limits of the assay; conditions: 72 h; IL-2 2.5 ng/mL
Method: as §1

Nc1nc(F)nc2c1ncn2[C@@H]1O[C@H](CO)[C@@H](O)[C@@H]1O [Fludarabine] (max concentration tested 10000 nM)
percent inhibition of viability [%]
Conditions	1 nM	10 nM	100 nM	1000 nM	10000 nM
DERL-7 (IL-2 2.5 ng/mL) [8]	-6.18	-6.69	2.47	-9.31	74.8
IMC-1 (IL-2 20 ng/mL) [7]	-8.37	2.44	-0.32	0.25	53.5
KAI3 (IL-2 2.5 ng/mL) [12]	-10.9	-7.43	-11.6	10.9	97.9
KHYG-1 (IL-2 2.5 ng/mL) [5]	-3.8	-1.74	-3.07	5.53	82.9
NK-92 (IL-2 2.5 ng/mL) [2]	-5.82	-19.1	-10.8	24.7	101
NK-YS (IL-2 2.5 ng/mL) [13]	-7.11	-1.12	-0.69	4.05	12.8
NKL (IL-2 2.5 ng/mL) [3]	-18.8	-16.5	-2.27	56.9	100
SNK-6 (IL-2 2.5 ng/mL) [9]	18.4	33.8	24.8	32.5	28
YT (IL-2 2.5 ng/mL) [6]	-2.12	0.54	0.43	-2.19	4.14
[1]	6.23	-6.78	8.3	45.7	93.6
[4]	-13.2	-7.62	3.81	29.6	90.2
[10]	-2.66	-18.7	10.1	65.3	89.5
[11]	-15.8	-12	5.13	47.7	93
[27]	-4.55	-1.76	-0.86	67.3	100

Conditions	drug sensitivity score
DERL-7 (IL-2 2.5 ng/mL) [21]	3.52
IMC-1 (IL-2 20 ng/mL) [20]	2.89
KAI3 (IL-2 2.5 ng/mL) [25]	7.22
KHYG-1 (IL-2 2.5 ng/mL) [18]	5.42
NK-92 (IL-2 2.5 ng/mL) [15]	9.32
NK-YS (IL-2 2.5 ng/mL) [26]	0.32
NKL (IL-2 2.5 ng/mL) [16]	12.3
SNK-6 (IL-2 2.5 ng/mL) [22]	7.06
YT (IL-2 2.5 ng/mL) [19]	0
[14]	10.6
[17]	9.07
[23]	13.5
[24]	10.8
[28]	13.3
